Consider 21 compounds from EP0109623A1, “Phenyl-propanol amines, their preparation and use” (BASF Aktiengesellschaft, priority 1982, dated 1984).

The target in one assay is Noradrenalin-Aufnahme (Rattus norvegicus, UniProt Q9WTR4). Nature of the assay: Inhibition of 3H-noradrenaline uptake in rat brain synaptosomes (hippocampus). As to conditions: for absolute Wirkstärke bei der Hemmung der Noradrenalin-Aufnahme: potency relative to Imipramin; for IC50: rat hippocampus synaptosomes, 3H-Noradrenalin ca. 10 nM, 37°C, read-out: Hemmung der Neurotransmitter-Aufnahme in Synaptosomen Noradrenalin IC50. The class given is biochemical, Ratte. The source says: (§1) Als Wirkungsmechanismus einer Gruppe therapeutisch vielfach genutzter Antidepressiva (z.B. tricyclische Antidepressiva) ist eine Hemmung der neuronalen Aufnahme von Transmittersubstanzen (Noradrenalin und/oder Serotonin) anzusehen. Diese Eigenschaft wird in biologischen Testmodellen zur Charakterisierung von potentiellen Antidepressiva verwendet. Es wurde folgende Methodik eingesetzt: • Hemmung der Neurotransmitter-Aufnahme in Rattenhirn-Synaptosomen
(§2) Hippocampus und Cortex aus Rattenhirn wurden präpariert und in 0,32 M Sucrose-Lösung homogenisiert. Durch differentielle Zentrifugation wurden Synaptosomen erhalten, die in Pufferlösung suspendiert wurden. Die Synaptosomen sind in der Lage, aus dem umgebenden Medium zugefügte Neurotransmittersubstanzen (z.B. Noradrenalin oder Serotonin) aktiv aufzunehmen. Dieser Vorgang ist durch Aufnahme-Hemmer konzentrationsabhängig antagonisierbar. Die Synaptosomen wurden mit den Testsubstanzen in verschiedenen Konzentrationen versetzt und anschließend mit ^3H-Noradrenalin (Hippocampus) bzw. ^3H-Serotonin (Cortex) bei 37°C inkubiert. Die Substratkonzentration betrug ca. 10 nM. Nach Stoppen der Aufnahme durch Verdünnen mit eisgekühlter Pufferlösung wurden die Synaptosomen i abzentrifugiert und die ^3H-Aktivität im Sediment gemessen. Der Blindwert wird durch Inkubation bei 0°C ermittelt.
(§3) Aus den bei verschiedenen Inhibitor-Konzentrationen gegen Kontrolle ermittelten Hemmwerten wurde durch lineare Regression nach logit-log-Transformation die mittlere Hemmkonzentration (ICso) berechnet.

For a further assay, the target named is T1, Serotonin-Aufnahme (Rattus norvegicus, UniProt P31652).
T1 construct: Durch differentielle Zentrifugation wurden Synaptosomen erhalten; from tissue; host or cells: rat brain cortex synaptosomes
Nature of the assay: Inhibition of 3H-serotonin uptake in rat brain synaptosomes (cortex). The class given is biochemical, Ratte.
Text: as §1, §2, §3

Where [1] appears, read: rat cortex synaptosomes, 3H-Serotonin ca. 10 nM, 37°C, read-out: Hemmung der Neurotransmitter-Aufnahme in Synaptosomen Serotonin IC50.

Structures can show the parent of a compound that is named as a salt. Where two headings read alike, the source gives them in different places.

T1 sequence (P31652 whole entry): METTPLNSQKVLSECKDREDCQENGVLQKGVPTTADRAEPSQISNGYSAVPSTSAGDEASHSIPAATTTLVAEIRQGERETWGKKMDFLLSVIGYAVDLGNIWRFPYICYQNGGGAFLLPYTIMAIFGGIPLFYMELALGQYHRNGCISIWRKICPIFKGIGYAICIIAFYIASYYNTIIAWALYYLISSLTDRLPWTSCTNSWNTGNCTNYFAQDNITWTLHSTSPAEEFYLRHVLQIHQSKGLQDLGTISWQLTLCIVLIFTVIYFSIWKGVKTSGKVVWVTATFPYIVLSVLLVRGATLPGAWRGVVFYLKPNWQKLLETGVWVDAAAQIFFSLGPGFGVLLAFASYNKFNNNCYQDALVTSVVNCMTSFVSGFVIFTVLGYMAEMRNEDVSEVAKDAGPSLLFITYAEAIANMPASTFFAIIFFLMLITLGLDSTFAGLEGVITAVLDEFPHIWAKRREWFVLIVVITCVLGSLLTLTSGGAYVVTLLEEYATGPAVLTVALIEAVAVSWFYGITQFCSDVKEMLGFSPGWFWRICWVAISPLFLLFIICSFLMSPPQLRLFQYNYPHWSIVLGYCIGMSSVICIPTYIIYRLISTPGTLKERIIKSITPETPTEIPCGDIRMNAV
Sequence of Noradrenalin-Aufnahme (Q9WTR4 1-597): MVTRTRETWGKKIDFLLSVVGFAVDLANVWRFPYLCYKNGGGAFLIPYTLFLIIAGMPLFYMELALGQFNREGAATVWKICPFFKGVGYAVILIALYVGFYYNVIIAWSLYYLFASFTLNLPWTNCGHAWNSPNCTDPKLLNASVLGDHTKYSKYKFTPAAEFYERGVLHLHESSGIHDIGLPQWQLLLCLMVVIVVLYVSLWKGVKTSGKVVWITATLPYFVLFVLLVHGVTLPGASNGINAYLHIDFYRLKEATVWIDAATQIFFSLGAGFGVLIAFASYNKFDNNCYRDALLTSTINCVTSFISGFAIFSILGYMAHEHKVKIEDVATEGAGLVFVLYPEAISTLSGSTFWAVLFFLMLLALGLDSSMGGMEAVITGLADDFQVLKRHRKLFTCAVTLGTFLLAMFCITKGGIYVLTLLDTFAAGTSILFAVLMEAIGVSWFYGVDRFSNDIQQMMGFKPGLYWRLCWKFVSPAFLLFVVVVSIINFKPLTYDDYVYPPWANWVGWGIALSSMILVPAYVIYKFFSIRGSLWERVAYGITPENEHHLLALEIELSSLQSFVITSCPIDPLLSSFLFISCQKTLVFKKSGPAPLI

The IC50 is the point on the concentration scale where inhibition reaches its midpoint. For the compound `CC(=O)OC(c1ccccc1)C(COc1ccccc1)CN(C)C.Cl` (stereo not drawn) [Beispiel 5, 3-Acetoxy-1-dimethylamino-2-phenoxymethyl-3-phenylpropan Hydrochlorid], on Noradrenalin-Aufnahme, the “absolute Wirkstärke bei der Hemmung der Noradrenalin-Aufnahme” value is listed as 8 -fach. Besides, the IC50 was determined as 1.7 nM on Noradrenalin-Aufnahme and 400 nM against Serotonin-Aufnahme.

For `CN(C)CC(COc1ccc(Cl)cc1)C(O)c1ccccc1` (stereo not drawn) [Beispiel 1.2, 2-(4-Chlorphenoxymethyl)-1-dimethylamino-3-phenyl-propanol-(3)], the IC50 at Noradrenalin-Aufnahme was 180 nM; at Serotonin-Aufnahme (setting [1]) it was 20 nM.

On to `CN(C)CC(COc1ccccc1)C(O)c1ccccc1` (stereo not drawn) [Beispiel 1, 1-Dimethylamino-2-phenoxymethyl-3-phenyl-propanol-(3)], for which the values for the IC50 on Noradrenalin-Aufnahme and on Serotonin-Aufnahme (setting [1]) were 5.2 nM and 190 nM, respectively.

For `CN(C)CC(CSc1ccccc1)C(O)c1ccccc1` (stereo not drawn) [Beispiel 1.6, 1-Dimethylamino-3-phenyl-2-thiophenoxymethyl-propanol-(3)], on Noradrenalin-Aufnahme, the “absolute Wirkstärke bei der Hemmung der Noradrenalin-Aufnahme” value is 8 -fach and the IC50 is 1.7 nM. Also, the IC50 on Serotonin-Aufnahme (setting [1]) came to 65 nM.

On to `CN(C)CC(COc1ccc(Cl)cc1)C(C)(O)c1ccccc1` (stereo not drawn) [Beispiel 2.8, 2-(4-Chlorphenoxymethyl)-1-dimethylamino-3-phenyl-butanol-(3) Hydrochlorid], for which the IC50 at Noradrenalin-Aufnahme came out at 160 nM; on Serotonin-Aufnahme (setting [1]), 3.8 nM.

As for `CCC(O)(c1ccccc1)C(COc1ccc(Cl)cc1)CN(C)C` (stereo not drawn) [Beispiel 2.7, 2-(4-Chlorphenoxymethyl)-1-dimethylamino-3-phenyl-pentanol-(3) Hydrochlorid], the values for the half-maximal inhibitory concentration (IC50) at Noradrenalin-Aufnahme and on Serotonin-Aufnahme (setting [1]) were 150 nM and 3.1 nM, respectively.

For `CN(C)CC(COc1ccccc1)C(O)(c1ccccc1)c1ccccc1` (stereo not drawn) [Beispiel 2.2, 1-Dimethylamino-3,3-diphenyl-2-phenoxymethyl-propanol-(3)], the IC50 on Noradrenalin-Aufnahme is 94 nM; on Serotonin-Aufnahme (setting [1]) it was 200 nM.

In the case of `CCCCCCCCCCCCC(O)(c1ccccc1)C(COc1ccccc1)CN(C)C` (stereo not drawn) [Beispiel 2.11, 1-Dimethylamino-2-phenoxymethyl-3-phenyl-pentadecanol-(3)], the IC50 on Noradrenalin-Aufnahme is 500 nM; at Serotonin-Aufnahme (setting [1]) it was 300 nM.

In the case of `COc1ccc(OCC2CN(C)CCC2c2ccccc2)cc1` (stereo not drawn) [Femoxetin, reference compound], the IC50 at Noradrenalin-Aufnahme turned out to be 330 nM.

As for `CN(C)CC(COc1ccc(Cl)cc1)C(O)(c1ccccc1)c1ccccc1` (stereo not drawn) [Beispiel 2.3, 2-(4-Chlorphenoxymethyl)1-dimethylamino-3,3-diphenyl-propanol-(3)], the IC50 amounted to 94 nM at Noradrenalin-Aufnahme and 26 nM at Serotonin-Aufnahme (setting [1]).

With `CN(C)CC(COc1ccc(Br)cc1)C(O)c1ccccc1` (stereo not drawn) [Beispiel 1.4, 2-(4-Bromphenoxymethyl)-1-dimethylamino-3-phenylpropanol-(3) Hydrochlorid], the values for the IC50 on Noradrenalin-Aufnahme and on Serotonin-Aufnahme (setting [1]) were 17 nM and 73 nM, respectively.

As for `CN(C)CC(COc1ccccc1)C(O)c1ccc(F)cc1` (stereo not drawn) [Beispiel 1.3, 1-Dimethylamino-3-(4-fluorphenyl)-2-phenoxymethyl-propanol-(3) Hydrochlorid], at Serotonin-Aufnahme (setting [1]), the IC50 was 490 nM.

As for `CCC(O)(c1ccccc1)C(COc1ccc(Cl)cc1)CN(C)C` (stereo not drawn) [Beispiel 2.9, 2-(4-Chlorphenoxymethyl)-1-dimethylamino-3-phenyl-pentanol-(3) Hydrochlorid], the figures for the IC50 at Noradrenalin-Aufnahme and at Serotonin-Aufnahme (setting [1]) were 68 nM and 100 nM, respectively.

On to `CCOC(=O)OC(c1ccccc1)C(COc1ccccc1)CN(C)C` (stereo not drawn) [Beispiel 5.3, 1-Dimethylamino-3-ethoxycarbonyloxy-2-phenoxymethyl-3-phenyl-propan Hydrochlorid], for which the IC50 is 20 nM on Noradrenalin-Aufnahme and 300 nM at Serotonin-Aufnahme.

As to `CN(C)CC(COc1ccccc1)C(C)(O)c1ccccc1` (stereo not drawn) [Beispiel 2.4, 1-Dimethylamino-2-phenoxymethyl-3-phenyl-butanol-(3) Hydrochlorid], the IC50 at Noradrenalin-Aufnahme stood at 36 nM; on Serotonin-Aufnahme (setting [1]), 66 nM.

For the compound `CCCCCCCCC(O)(c1ccccc1)C(COc1ccccc1)CN(C)C` (stereo not drawn) [Beispiel 2.10, 1-Dimethylamino-2-phenoxymethyl-3-phenyl-undecanol-(3)], the values for the IC50 on Noradrenalin-Aufnahme and at Serotonin-Aufnahme (setting [1]) were 38 nM and 49 nM, respectively.

Turning to `CCCC(O)(c1ccccc1)C(COc1ccccc1)CN(C)C` (stereo not drawn) [Beispiel 2.5, 1-Dimethylamino-2-phenoxymethyl-3-phenyl-hexanol-(3) Hydrochlorid], the values for the IC50 on Noradrenalin-Aufnahme and at Serotonin-Aufnahme (setting [1]) were 13 nM and 37 nM, respectively.

Turning to `C=CC(O)(c1ccccc1)C(COc1ccccc1)CN(C)C` (stereo not drawn) [Beispiel 2.12, l-Dimethylamino-2-phenoxymethyl-3-phenyl-pent-4-enol-(3) Hydrochlorid], the IC50 came to 100 nM at Noradrenalin-Aufnahme and 69 nM on Serotonin-Aufnahme (setting [1]).

As for `CCCC(O)(c1ccccc1)C(COc1ccc(Cl)cc1)CN(C)C` (stereo not drawn) [Beispiel 2.6, 2-(4-Chlorphenoxymethyl)-1-dimethylamino-3-phenyl-hexanol-(3) Hydrochlorid], the IC50 amounted to 200 nM at Noradrenalin-Aufnahme and 3.6 nM at Serotonin-Aufnahme (setting [1]).

For `C=CCOC(c1ccccc1)C(COc1ccccc1)CN(C)C` (stereo not drawn) [Beispiel 6, 3-Allyloxy-1-dimethylamino--2-phenoxymethyl-3-phenyl-propan], the values for the IC50 on Noradrenalin-Aufnahme and against Serotonin-Aufnahme were 17 nM and 56 nM, respectively.

As for `CCC(O)(c1ccccc1)C(COc1ccccc1)CN(C)C` (stereo not drawn) [Beispiel 2, 1-Dimethylamino-3-phenyl-2-phenoxymethyl-pentanol-(3) Hydrochlorid], the IC50 on Noradrenalin-Aufnahme was 11 nM; at Serotonin-Aufnahme (setting [1]) it was 25 nM.
